Experiments:
[1] = target: T1, D5 (Homo sapiens, UniProt P21918); assay: D5R β-arrestin recruitment assay (DiscoverX PathHunter, CHO cells); assay type: cell-based; parameters: host or cells: CHO-K1; conditions: for D5 Beta-Arrestin: DA + 50 μM PAM, Fold Change EC50: fold change of dopamine EC50, 50 μM compound
Experimental: (§1) β-arrestin Recruitment Assay. […] Following 18-24 h of incubation, the cells were treated with the indicated concentrations of compound in PBS buffer containing 0.2 mM sodium metabisulfite, and incubated at 37° C. for 90 min. DiscoverX reagent was added to cells according to the manufacturer's protocol, followed by a 60 min incubation in the dark at room temperature. Luminescence was measured on a Hamamatsu FDSS μ-Cell reader (Hamamatsu, Bridgewater, N.J.) and data were collected using the FDSS software.
Each PAM was also examined in the absence of DA as an agonist, as indicated.

[2] = target: human D1R (Homo sapiens, UniProt P21728); assay: D1R β-arrestin recruitment assay (DiscoverX PathHunter, CHO-K1 cells)
From the text: The DiscoverX PathHunter β-Arrestin Assay was used to measure β-arrestin reuitment to the D1R following the manufacturer's instructions.

[3] = target: T2, D4R (Homo sapiens, UniProt P21917); assay: D4 β-arrestin recruitment assay (DiscoverX PathHunter, CHO-K1 cells); assay type: cell-based; parameters: inferred from the same PathHunter system described for D1R and D5R; host or cells: CHO-K1; conditions: for D4 Beta-Arrestin: DA + 50 μM PAM, Fold Change EC50: fold change of dopamine EC50, 50 μM compound
T2 sequence (P21917 1-419): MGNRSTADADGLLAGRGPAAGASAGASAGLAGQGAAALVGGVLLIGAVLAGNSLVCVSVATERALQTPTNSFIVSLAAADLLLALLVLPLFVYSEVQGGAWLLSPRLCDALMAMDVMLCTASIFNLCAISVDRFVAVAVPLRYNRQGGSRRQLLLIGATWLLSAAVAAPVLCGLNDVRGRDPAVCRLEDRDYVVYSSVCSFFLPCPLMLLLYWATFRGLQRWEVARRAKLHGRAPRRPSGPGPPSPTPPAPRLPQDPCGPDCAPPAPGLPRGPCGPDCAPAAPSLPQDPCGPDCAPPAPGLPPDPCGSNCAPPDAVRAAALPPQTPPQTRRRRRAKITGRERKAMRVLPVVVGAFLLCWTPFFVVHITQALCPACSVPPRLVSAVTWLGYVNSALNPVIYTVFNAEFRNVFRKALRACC
Experimental: as §1, with “Assay. Agonist-mediated recruitment of β-arrestin-2 to all five DARs was determined using the DiscoveRx PathHunter complementation assay (DiscoverX Inc, Fremont, Calif.), as previously described (Free, et. al., 2014; Conroy, et. al., 2015).” for “Assay.”

[4] = target: T1, D5; assay: D5 cAMP assay; conditions: fold change of dopamine EC50, 50 μM compound

T1 sequence (P21918 whole entry): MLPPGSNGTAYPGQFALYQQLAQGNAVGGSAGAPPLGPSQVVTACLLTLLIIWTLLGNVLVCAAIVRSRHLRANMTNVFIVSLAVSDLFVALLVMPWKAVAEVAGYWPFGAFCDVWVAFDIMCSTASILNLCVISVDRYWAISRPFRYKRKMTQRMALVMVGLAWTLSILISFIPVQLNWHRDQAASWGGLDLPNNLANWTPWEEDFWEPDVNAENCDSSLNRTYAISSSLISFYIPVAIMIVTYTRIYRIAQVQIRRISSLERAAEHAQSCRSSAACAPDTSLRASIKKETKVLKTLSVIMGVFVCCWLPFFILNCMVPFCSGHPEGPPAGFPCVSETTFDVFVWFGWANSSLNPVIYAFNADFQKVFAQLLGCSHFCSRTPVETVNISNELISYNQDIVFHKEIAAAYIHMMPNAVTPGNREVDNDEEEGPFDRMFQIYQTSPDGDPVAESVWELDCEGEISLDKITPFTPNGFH
Sequence of human D1R (P21728 whole entry): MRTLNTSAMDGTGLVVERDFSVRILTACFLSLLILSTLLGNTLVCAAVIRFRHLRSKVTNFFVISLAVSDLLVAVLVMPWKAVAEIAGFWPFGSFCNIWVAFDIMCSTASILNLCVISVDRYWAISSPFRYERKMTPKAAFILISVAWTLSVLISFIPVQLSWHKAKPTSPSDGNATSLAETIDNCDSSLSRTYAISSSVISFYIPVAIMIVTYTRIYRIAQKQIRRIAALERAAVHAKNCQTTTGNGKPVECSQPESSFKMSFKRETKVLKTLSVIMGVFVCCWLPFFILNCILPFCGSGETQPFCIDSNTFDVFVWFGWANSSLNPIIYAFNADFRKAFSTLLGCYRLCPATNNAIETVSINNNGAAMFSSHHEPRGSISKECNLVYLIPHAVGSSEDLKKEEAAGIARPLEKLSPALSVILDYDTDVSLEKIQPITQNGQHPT

D5 Beta-Arrestin: DA + 50 μM PAM, Fold Change EC50 [1]	D4 Beta-Arrestin: DA + 50 μM PAM, Fold Change EC50 [3]	other results	SMILES
		Dopamine D5-β-arrestin Assay: DA + 50 μM PAM, Fold Change EC50 ([1]; Table 6, 50 μM compound): 1.71; Dopamine D1-β-arrestin Assay: DA + 50 μM PAM, Fold Change EC50 ([2]; Table 5, 50 μM compound): 3.85; Dopamine D4-β-arrestin Assay: DA + 50 μM PAM, Fold Change EC50 ([3]; Table 7, 50 μM compound): 0.95	Cn1c2ccccc2c(=O)c2c(=O)n(C3CCCCCC3)c(C3CCCCC3)nc21
		Emax ([2]; CHO-K1, read-out: dihydrexidine Emax): 70.5%	Oc1cc2c(cc1O)[C@H]1c3ccccc3CN[C@@H]1CC2 (racemic) [dihydrexidine, reference compound]
2.64	0.64		Cc1ccc(-n2c(C3CCCCC3)nc3c(c(=O)c4ccccc4n3C)c2=O)cc1 [Compound 2]
2.03	0.61		Cn1c2ccccc2c(=O)c2c(=O)n(-c3ccc(Cl)cc3)c(C3CCCCC3)nc21 [Compound 3]
0.77	0.61		COc1ccc(-n2c(C3CCCCC3)nc3c(c(=O)c4ccccc4n3C)c2=O)cc1Cl [Compound 4]
1.32	1.06	PAM activity at the D5 receptor ([1]; 50 μM compound): none of these analogs have PAM activity; fold change of dopamine EC50 for β-arrestin recruitment to D5R ([1]; 50 μM compound): 1.3 fold; D5 cAMP: DA + 50 μM PAM, Fold Change EC50 [4]: 2.23	Cc1ccc(-n2c(CC(C)C)nc3c(c(=O)c4ccccc4n3C)c2=O)cc1 [Compound 5]
0.81	0.47	PAM activity at the D5 receptor ([1]; 50 μM compound): none of these analogs have PAM activity; fold change of dopamine EC50 for β-arrestin recruitment to D5R ([1]; 50 μM compound): 0.8 fold	CC(C)Cc1nc2c(c(=O)c3ccccc3n2C)c(=O)n1-c1ccc(Cl)cc1 [Compound 6]
0.80	0.57	PAM activity at the D5 receptor ([1]; 50 μM compound): none of these analogs have PAM activity; fold change of dopamine EC50 for β-arrestin recruitment to D5R ([1]; 50 μM compound): 0.8 fold	CC(C)Cc1nc2c(c(=O)c3ccccc3n2C)c(=O)n1-c1cccc(Cl)c1 [Compound 7]
1.53	1.20		COc1ccc(-n2c(CC(C)C)nc3c(c(=O)c4ccccc4n3C)c2=O)cc1Cl [Compound 8]
2.93	1.58		COc1ccc(-n2c(CC(C)C)nc3c(c(=O)c4ccccc4n3C)c2=O)cc1 [Compound 9]
3.11	1.33		Cc1ccc(-n2c(C3CCCC3)nc3c(c(=O)c4ccccc4n3C)c2=O)cc1 [Compound 10]
4.10	1.46		COc1ccc(-n2c(C3CCCC3)nc3c(c(=O)c4ccccc4n3C)c2=O)cc1 [Compound 11]
0.66	0.71		Cn1c2ccccc2c(=O)c2c(=O)[nH]c(C3CCCC3)nc21 [Compound 12]
0.91	1.90		Cn1c2ccccc2c(=O)c2c(=O)n(-c3cccc(Cl)c3)c(C3CCCC3)nc21 [Compound 14]
1.51	1.33		COc1ccc(-n2c(C3CCCC3)nc3c(c(=O)c4ccccc4n3C)c2=O)cc1Cl [Compound 15]
1.09	1.38	D5 cAMP: DA + 50 μM PAM, Fold Change EC50 [4]: 1.43	Cn1c2ccccc2c(=O)c2c(=O)n(-c3ccc(Cl)cc3)c(CC3CCCCC3)nc21 [Compound 17]
1.35	1.57	D5 cAMP: DA + 50 μM PAM, Fold Change EC50 [4]: 0.34	Cn1c2ccccc2c(=O)c2c(=O)n(-c3cccc(Cl)c3)c(CC3CCCCC3)nc21 [Compound 18]

— patent US20210040074A1 (The United States of America,as represented by the …, priority 2018, published 2021)
